This is an account of results in US11180811B2, “Molecular signatures of conditions associated with longevity” (The Brigham and Women's Hospital, Inc., priority 2014, dated 2021).

For assay [1], the system named is Kidney longevity gene expression signature. Nature of the assay: Compounds that shift gene expression in the direction of longevity (Table 6), kidney. From the text:
(§1) The methods, assays, and systems described herein can be useful in a number of areas, including the discovery and validation of new targets for reducing rate of aging, extending lifespan, reducing incidence and delaying onset of disease and improving overall health of aging populations. Furthermore, the invention can facilitate the discovery and development of drugs, biologicals and treatment regimens based on the above that favorably intervene in the aging process. For example, the gene expression signatures described herein can be used to choose target gene products in a therapeutic protocol, to elaborate the biological function of the target gene product in the aging process, and to identify compounds that alleviate deterioration associated with aging by modulating the activity of target gene products. For example, several compounds that shift gene expression in the direction of longevity have been identified or validated using the assays or methods described herein (Table 6).
(§2) In Table 6, several compounds that shift gene expression in the direction of longevity have been identified or validated.

Assay [2] has as its system Liver longevity gene expression signature. Put plainly: Compounds that shift gene expression in the direction of longevity (Table 6), liver.
Text: as §1, §2

The test system of assay [3] is Brain longevity gene expression signature. Nature of the assay: Compounds that shift gene expression in the direction of longevity (Table 6), brain.
Text: as §1, §2

Assay [4] concerns mice. The note with it: elevated growth hormone treatment during development (Panici et al., 2010); cited from earlier work.

Consider `CCCCC/C=C/C=C1/C(=O)C=C[C@@H]1C/C=C\CCCC(=O)O` [15Δ prostaglandin J2], for which the “Direction of lifespan associated with the compound's shift of gene expression (Increased lifespan / Decreased lifespan)” value in assay [1], in assay [2] and in assay [3] was “Decreased” each time.

Take `CO[C@H]1/C=C\C=C(/C)C(=O)NC2=CC(=O)C(NCCN(C)C)=C(C[C@@H](C)C[C@H](OC)[C@H](O)[C@@H](C)/C=C(\C)[C@@H]1OC(N)=O)C2=O` [Alvespimycin]: the “Direction of lifespan associated with the compound's shift of gene expression (Increased lifespan / Decreased lifespan)” value in assay [3] was “Decreased”.

For the compound `NC12CC3CC(CC(C3)C1)C2` [Amantadine], in assay [3], the “Direction of lifespan associated with the compound's shift of gene expression (Increased lifespan / Decreased lifespan)” value is on record as “Increased”.

In the case of `CN(C)CCOC(C)(c1ccccc1)c1ccccn1` (centres unmarked) [Doxylamine], the “Direction of lifespan associated with the compound's shift of gene expression (Increased lifespan / Decreased lifespan)” value in assay [2] is on record as “Decreased”.

In the case of `C[C@H]1O[C@@H](O[C@H]2CC[C@]3(C=O)[C@H]4CC[C@]5(C)[C@@H](C6=CC(=O)OC6)CC[C@]5(O)[C@@H]4CC[C@]3(O)C2)C[C@H](O)[C@@H]1O` [Helveticoside], the “Direction of lifespan associated with the compound's shift of gene expression (Increased lifespan / Decreased lifespan)” value in assay [2] is “Increased”.

In the case of `CCc1c2c(nc3ccc(OC(=O)N4CCC(N5CCCCC5)CC4)cc13)-c1cc3c(c(=O)n1C2)COC(=O)[C@]3(O)CC` [Irinotecan], the “Direction of lifespan associated with the compound's shift of gene expression (Increased lifespan / Decreased lifespan)” value in assay [1] and in assay [3] was “Increased” in each case.

`O[C@H]1[C@H]2c3cc4c(cc3CN3CCC(=C[C@@H]1O)[C@H]23)OCO4` [Lycorine]: in assay [1], the “Direction of lifespan associated with the compound's shift of gene expression (Increased lifespan / Decreased lifespan)” value was “Decreased”.

Turning to `C[C@@H]1C[C@H]2O[C@@H]2/C=C\C=C\C(=O)Cc2c(Cl)c(O)cc(O)c2C(=O)O1` [Monorden], the “Direction of lifespan associated with the compound's shift of gene expression (Increased lifespan / Decreased lifespan)” value in assay [2] is listed as “Decreased”.

On to `Oc1ccc(C=Cc2cc(O)cc(O)c2)cc1` [Resveratrol], for which the “Direction of lifespan associated with the compound's shift of gene expression (Increased lifespan / Decreased lifespan)” value in assay [2] is reported as “Increased”.

Artemizole: the “Direction of lifespan associated with the compound's shift of gene expression (Increased lifespan / Decreased lifespan)” value in assay [2] was “Increased”.

In the case of growth hormone, the Effect on lifespan result in assay [4] is on record as “shortens lifespan”.
